These results are taken from patent US7763596B2, “Selective glucocorticoid receptor agonists” (The University of Manchester, priority 2000, dated 2010).

The subject of assay [1] is tyrosine amino transferase (TAT). The assay is described as follows: Quantitation of endogenous tyrosine amino transferase (TAT) in the HEPG2 liver cell line. Particulars: HEPG2, 1 μM; p=0.014, two tailed t-test. It is filed as cell-based, human. From the text:
The HEP G2 cell line (ECACC: 85011430) is derived from human liver epithelial cells from a well differentiated hepatocellular carcinoma. This cell line has functional endogenous GR and is stimulated by GR activation to produce tyrosine amino transferase.
In this method a colourimetric approach is used to quantitate TAT activity. The TAT enzyme catalyses the following reaction: L-tyrosine+2-oxoglutarate⇄4-hydroxyphenylpyruvate (pHPP)+L-glutamate
This reaction also requires pyridoxal phosphate (PLP) as a co-factor.
Strong alkali conditions can then be used to convert pHPP to p-hydroxybenzaldehyde (pHBA) and oxalate. The amount of pHBA can then be assessed by measuring its absorbance at 331 nm (extinction coefficient 19,900 M^−1cm^−1) this figure is then assumed to be directly proportional to TAT activity. HEPG2 cells were cultivated till confluent on a 10 cm plate (˜10^7 cells). These cells were then scraped off and suspended in 500 μl of ice cold 0.14M KCl. The cells were lysed by 3 cycles of 10 second burst sonication at full power (50 W, 20 kHz Sonicator; Jencons, Leighton Buzzard, UK). The cells were kept on ice between each burst. […]
For each reaction a control reaction was set up without the ketoglutarate. […] The samples were incubated at room temperature for a further 30 mins and then the absorbance of each sample was assessed at 331 nm on a spectrophotometer (Ultrospec III, Pharmacia).

For another assay, the target named is T1, progesterone receptor (Homo sapiens, UniProt P06401).
T1 sequence (P06401 1-933): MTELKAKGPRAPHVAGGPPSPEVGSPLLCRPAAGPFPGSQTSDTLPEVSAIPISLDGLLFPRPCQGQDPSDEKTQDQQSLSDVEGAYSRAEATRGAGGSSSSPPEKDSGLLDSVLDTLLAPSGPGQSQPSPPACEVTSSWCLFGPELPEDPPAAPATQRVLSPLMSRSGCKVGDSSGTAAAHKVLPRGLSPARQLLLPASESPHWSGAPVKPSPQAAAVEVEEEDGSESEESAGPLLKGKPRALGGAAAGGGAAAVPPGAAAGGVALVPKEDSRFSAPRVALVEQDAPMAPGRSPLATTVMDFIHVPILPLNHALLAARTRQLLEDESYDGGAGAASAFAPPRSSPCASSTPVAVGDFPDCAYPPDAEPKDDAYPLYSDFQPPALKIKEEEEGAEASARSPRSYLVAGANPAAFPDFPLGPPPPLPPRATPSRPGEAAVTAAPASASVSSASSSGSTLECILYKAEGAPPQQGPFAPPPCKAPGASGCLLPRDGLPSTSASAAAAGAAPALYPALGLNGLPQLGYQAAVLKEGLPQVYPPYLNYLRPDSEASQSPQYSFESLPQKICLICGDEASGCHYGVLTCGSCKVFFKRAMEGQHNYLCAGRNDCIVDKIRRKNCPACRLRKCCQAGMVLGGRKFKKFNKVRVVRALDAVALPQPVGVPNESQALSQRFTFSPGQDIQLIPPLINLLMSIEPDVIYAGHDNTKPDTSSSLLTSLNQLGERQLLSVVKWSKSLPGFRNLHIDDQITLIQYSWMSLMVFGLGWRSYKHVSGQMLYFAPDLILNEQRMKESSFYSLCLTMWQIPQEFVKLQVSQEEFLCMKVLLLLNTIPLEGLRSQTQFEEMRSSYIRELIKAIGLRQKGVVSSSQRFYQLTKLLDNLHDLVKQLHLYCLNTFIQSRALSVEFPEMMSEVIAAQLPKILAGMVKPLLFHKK
Description: Classic receptor binding assay, progesterone receptor (data not shown).

For another assay, the target named is T2, glucocorticoid receptor (Homo sapiens, UniProt P04150).
T2 sequence (P04150 1-777): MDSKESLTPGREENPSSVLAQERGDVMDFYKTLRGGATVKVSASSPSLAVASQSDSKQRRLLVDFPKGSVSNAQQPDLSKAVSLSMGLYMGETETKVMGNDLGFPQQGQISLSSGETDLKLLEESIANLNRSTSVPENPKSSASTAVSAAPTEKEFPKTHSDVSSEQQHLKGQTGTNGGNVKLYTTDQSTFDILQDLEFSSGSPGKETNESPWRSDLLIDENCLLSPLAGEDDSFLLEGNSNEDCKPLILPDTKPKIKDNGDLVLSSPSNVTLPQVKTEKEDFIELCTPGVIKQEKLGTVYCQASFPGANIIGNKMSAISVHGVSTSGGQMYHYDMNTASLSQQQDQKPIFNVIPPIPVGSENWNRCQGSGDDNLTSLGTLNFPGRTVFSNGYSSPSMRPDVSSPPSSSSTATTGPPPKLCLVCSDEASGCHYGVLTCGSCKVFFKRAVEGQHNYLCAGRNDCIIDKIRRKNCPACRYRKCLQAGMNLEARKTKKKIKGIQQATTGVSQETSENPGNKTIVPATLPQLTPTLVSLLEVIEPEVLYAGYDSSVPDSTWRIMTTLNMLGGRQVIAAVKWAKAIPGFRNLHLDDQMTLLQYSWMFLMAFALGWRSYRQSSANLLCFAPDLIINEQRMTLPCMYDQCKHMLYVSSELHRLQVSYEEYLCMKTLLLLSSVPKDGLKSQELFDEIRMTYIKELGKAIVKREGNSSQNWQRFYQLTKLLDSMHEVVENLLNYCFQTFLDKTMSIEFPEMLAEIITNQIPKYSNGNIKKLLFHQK
Description: Selectivity for transrepression over transactivation in vitro. In kind it is cell-based. Also noted: expressed in transfected cells; host or cells: COS 7 (African green monkey kidney, deficient in endogenous GR).

Take `CCCNC(=O)C1(O)C(C)CC2C3CCC4=CC(=O)C=CC4(C)C3(F)C(O)CC21C` (stereo not drawn) [Compound G]: the “TAT activity compared to dexamethasone” value in assay [1] is given as “significant reduction in TAT activity”. In addition, the “binding to the progesterone receptor” value at progesterone receptor was “not to bind to the progesterone receptor”. Moreover, at glucocorticoid receptor, the “selectivity for transrepression over transactivation” value was “approximately 1000 fold”.
